Test results taken from patent publication US11234982B2, “Methods for treating ocular surface pain” (NOVARTIS AG, priority 2019, dated 2022).

Tests used:
[1] = PRK study: residual compound I in bandage contact lens (BCL); assay type: in vivo, human
Description: Compound I was quantified in plasma using a validated LC-MS/MS method; the lower limit of quantification (LLOQ) was 0.05 ng/mL. Concentrations were expressed in ng per mL units. When feasible, bandage contact lenses (BCL) exposed to study drug were collected and analyzed for residual drug exposure after treatment (LLOQ: 5.00 ng/mL in 0.55 mL of extraction fluid, or 2.75 ng/BCL). Concentrations below the LLOQ were reported as “zero” and missing data were labeled as such.
Bandage Contact Lens (BCL) was collected from 40 patients on Day 4 of the dose administration and analyzed for compound I. Values from the three IMP non-compliant patients were excluded from BCL summary statistics, leaving 37 values evaluable, including one value from a patient without available plasma PK. The mean concentration of compound I (CV %) in 0.55 mL extraction fluid was 8500 ng/mL (73.1%), with a wide range of 284 to 22600 ng/mL. These concentrations translate to an estimated mean of 4680 ng/lens (0.55 mL×8500 ng/mL), and a range of 156 to 12400 ng/lens. The amount in BCL was very small in relation to the 0.925 mg dose of compound I administered: mean 0.51%, and range of 0.017% to 1.3% of dose.

[2] = First in human study plasma pharmacokinetics; assay type: in vivo
Description: This example describes a first-in-human study of compound I conducted in healthy volunteers. A total of 54 subjects were administered to study medication. Part 1 of the first in human study administered single ascending doses of 0.15%, 1.5%, 2.5% w/v (1 drop) of compound I in an eye drop.
Part 2 tested multiple ascending doses (MAD) of compound I, administering (i) 1 drop of 0.15%, 1.5%, 2.5%, 4 times daily (every 6 hours) for 7 days or (ii) 1 drop of 2.5%, 8 times daily (every 3 hours) for 7 days (supra-therapeutic dose) as eye drops.
Accumulation of compound I at steady-state was minor (˜1.7-fold) following administration of 0.15%, 1.5% or 2.5% suspension 4 times daily and also minor (˜1.3-fold) following 2.5% 8 times daily for 7 days.

CC(C)c1nc2cc(O)ccc2c(=O)n1-c1ccc(C#N)cc1 [Compound I, 4-(7-hydroxy-2-isopropyl-4-oxo-4H-quinazolin-3-yl)-benzonitrile]
Range of concentration of compound I in BCL extraction fluid ([1]; 0.55 mL extraction fluid, Day 4): 284 to 22600 ng/mL
Mean concentration of compound I in BCL extraction fluid ([1]; 0.55 mL extraction fluid, Day 4, 37 values): 8500 ng/mL
Estimated mean amount of compound I per lens ([1]; 0.55 mL×8500 ng/mL): 4680 ng/lens
Amount in BCL in relation to the 0.925 mg dose, mean ([1]; Day 4): 0.51 % of dose
Amount in BCL in relation to the 0.925 mg dose, range ([1]; Day 4): 0.017 % of dose
Range of amount of compound I per lens ([1]; Day 4): 156 to 12400 ng/lens
Accumulation at steady-state ([2]; 0.15%, 1.5% or 2.5% suspension 4 times daily): ~1.7 fold
Accumulation at steady-state ([2]; 2.5%, 8 times daily for 7 days): ~1.3 fold
Increase in systemic exposure with dose ([2]; dose from 0.15% to 2.5%): less than dose-proportional increase
Absorption into systemic circulation (plasma PK profile) ([2]; single and multiple topical ocular suspension doses 0.15%, 1.5%, 2.5%): rapid absorption
